# Data as given in ChEMBL document CHEMBL1201862, “PubChem BioAssay data set” (2004).
# The source made the active and inactive calls.
# Assays:
# Danio rerio = experiment: In Vivo Angiogenesis Dose-Response Confirmation. [Related pubchem assays: 732 (Assay preceding this confirmatory assay.)]; assay type: functional, organism-based
# [1] = Luminescence Cell-Based Dose Retest to Confirm Inhibitors of Cancer Stem Cells. [Related pubchem assays (depositor defined):AID2717, AID2721]; assay type: functional; settings: Homo sapiens
# [2] = molecular target: RNA-editing ligase 1, mitochondrial (Trypanosoma brucei brucei, UniProt P86926); experiment: inhibition of trypanosome RNA editing ligase – biochemical, fluorescence, Trypanosoma brucei, dose response (AID 1117295); assay type: functional
# Sequence of RNA-editing ligase 1, mitochondrial (P86926 whole entry): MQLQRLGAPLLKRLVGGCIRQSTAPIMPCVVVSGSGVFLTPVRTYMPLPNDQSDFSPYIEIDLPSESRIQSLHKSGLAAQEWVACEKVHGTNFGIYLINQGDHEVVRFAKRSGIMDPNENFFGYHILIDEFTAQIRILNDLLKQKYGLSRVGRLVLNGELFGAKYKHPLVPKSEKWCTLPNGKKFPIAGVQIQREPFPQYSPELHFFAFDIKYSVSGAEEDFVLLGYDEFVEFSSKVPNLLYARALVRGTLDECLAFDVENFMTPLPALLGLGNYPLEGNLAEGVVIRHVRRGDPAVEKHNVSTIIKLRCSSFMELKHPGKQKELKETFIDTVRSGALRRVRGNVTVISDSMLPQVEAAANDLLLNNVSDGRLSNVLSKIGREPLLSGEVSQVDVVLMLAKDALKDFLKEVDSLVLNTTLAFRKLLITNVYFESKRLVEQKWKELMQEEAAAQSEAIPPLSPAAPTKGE
# [3] = molecular target: Eukaryotic translation initiation factor 4E (Mus musculus, UniProt P63073); experiment: blockers of eIF4G binding by eIF4E – biochemical, TR-FRET, dose response (AID 855); assay type: functional;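 further: potency for disrupting eIF4E binding to eIF4GI seen as loss of FRET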
# [4] = molecular target: T1, Voltage-gated N-type calcium channel alpha-1B subunit/Amyloid beta A4 precursor protein-binding family A member 1 (Homo sapiens, UniProt Q00975+Q02410); assay type: protein assay
# Streptokinase A = molecular target: T2, Streptokinase A (Streptococcus pyogenes serotype M1, UniProt P10520); experiment: viability-normalized secreted streptokinase activity reduction – plasminogen activation absorbance, OD405, dose response (AID 1914); assay type: functional, Streptococcus pyogenes M1 GAS;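 further: secreted streptokinase activity via plasminogen activation per viability signal from cell pellet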
# T2 sequence (P10520 whole entry): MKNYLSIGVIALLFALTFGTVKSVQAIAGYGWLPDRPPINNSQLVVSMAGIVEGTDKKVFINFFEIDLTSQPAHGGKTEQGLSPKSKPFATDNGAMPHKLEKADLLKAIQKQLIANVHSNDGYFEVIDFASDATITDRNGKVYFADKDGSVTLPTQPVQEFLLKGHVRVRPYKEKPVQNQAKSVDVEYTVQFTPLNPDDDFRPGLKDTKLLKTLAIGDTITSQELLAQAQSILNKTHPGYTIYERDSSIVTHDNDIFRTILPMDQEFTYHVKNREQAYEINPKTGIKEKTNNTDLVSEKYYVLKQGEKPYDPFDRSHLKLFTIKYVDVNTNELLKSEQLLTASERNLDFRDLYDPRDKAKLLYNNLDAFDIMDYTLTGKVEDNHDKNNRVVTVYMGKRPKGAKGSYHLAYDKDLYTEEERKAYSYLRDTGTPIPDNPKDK
# [5] = molecular target: T3, Photoreceptor-specific nuclear receptor (Homo sapiens, UniProt Q9Y5X4); assay type: functional, cell-based;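 further: CHO-S cells with Gal4-NCOR and VP16-NR2E3 two-hybrid luciferase reporter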
# T3 sequence (Q9Y5X4 whole entry, the tested form may be a part): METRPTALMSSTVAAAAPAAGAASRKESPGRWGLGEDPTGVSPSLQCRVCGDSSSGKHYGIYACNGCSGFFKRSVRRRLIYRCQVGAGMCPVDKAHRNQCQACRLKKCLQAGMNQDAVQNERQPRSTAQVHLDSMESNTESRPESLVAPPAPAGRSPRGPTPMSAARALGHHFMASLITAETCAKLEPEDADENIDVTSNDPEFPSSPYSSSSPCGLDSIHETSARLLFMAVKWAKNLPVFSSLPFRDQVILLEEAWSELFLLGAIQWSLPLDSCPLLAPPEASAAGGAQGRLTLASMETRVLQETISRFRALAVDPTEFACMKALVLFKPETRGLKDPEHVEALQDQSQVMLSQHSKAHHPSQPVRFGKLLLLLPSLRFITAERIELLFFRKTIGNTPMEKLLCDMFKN
# [6] = molecular target: T1, Voltage-gated N-type calcium channel alpha-1B subunit/Amyloid beta A4 precursor protein-binding family A member 1; assay type: protein assay; remark: listed apart in the source
# Streptococcus = experiment: GAS UMAA2166 growth inhibition – luminescence, BacTiterGlo, counter-screen for streptokinase expression inhibitor project, dose response (AID 1915); assay type: functional, organism-based;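 further: potency for reduction of bacterial viability or growth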
# [7] = molecular target: T3, Photoreceptor-specific nuclear receptor; experiment: ligands suppressing NR2E3 nuclear receptor activity – biochemical, TR-FRET, dose response (AID 463256); assay type: functional
# [8] = molecular target: Peroxisome proliferator-activated receptor gamma/Nuclear receptor corepressor 2 (Homo sapiens, UniProt P37231+Q9Y618); experiment: Counterscreen for NR2E3 inverse agonists: TR-FRET-based biochemical high throughput dose response assay to identify inverse agonists of the interaction between peroxisome proliferator-activated receptor gamma (PPARg) and nuclear receptor co-repressor 2 (NCOR2).; assay type: functional
# Sequence of Peroxisome proliferator-activated receptor gamma/Nuclear receptor corepressor 2 (P37231 whole entry): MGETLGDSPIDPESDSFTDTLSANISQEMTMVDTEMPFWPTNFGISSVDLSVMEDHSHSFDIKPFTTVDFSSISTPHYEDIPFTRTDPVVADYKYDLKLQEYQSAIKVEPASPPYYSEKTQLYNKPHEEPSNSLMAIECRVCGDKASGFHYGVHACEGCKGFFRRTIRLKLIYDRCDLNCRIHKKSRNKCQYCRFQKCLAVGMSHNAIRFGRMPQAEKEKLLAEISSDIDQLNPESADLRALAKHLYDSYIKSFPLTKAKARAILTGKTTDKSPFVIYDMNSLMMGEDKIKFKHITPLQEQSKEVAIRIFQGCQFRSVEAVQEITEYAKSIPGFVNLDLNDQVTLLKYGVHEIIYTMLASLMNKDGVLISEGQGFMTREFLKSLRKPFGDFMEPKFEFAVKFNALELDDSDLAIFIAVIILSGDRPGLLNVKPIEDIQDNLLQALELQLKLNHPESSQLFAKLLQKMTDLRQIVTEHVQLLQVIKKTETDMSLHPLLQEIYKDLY
# Sequence of Peroxisome proliferator-activated receptor gamma/Nuclear receptor corepressor 2 (Q9Y618 whole entry): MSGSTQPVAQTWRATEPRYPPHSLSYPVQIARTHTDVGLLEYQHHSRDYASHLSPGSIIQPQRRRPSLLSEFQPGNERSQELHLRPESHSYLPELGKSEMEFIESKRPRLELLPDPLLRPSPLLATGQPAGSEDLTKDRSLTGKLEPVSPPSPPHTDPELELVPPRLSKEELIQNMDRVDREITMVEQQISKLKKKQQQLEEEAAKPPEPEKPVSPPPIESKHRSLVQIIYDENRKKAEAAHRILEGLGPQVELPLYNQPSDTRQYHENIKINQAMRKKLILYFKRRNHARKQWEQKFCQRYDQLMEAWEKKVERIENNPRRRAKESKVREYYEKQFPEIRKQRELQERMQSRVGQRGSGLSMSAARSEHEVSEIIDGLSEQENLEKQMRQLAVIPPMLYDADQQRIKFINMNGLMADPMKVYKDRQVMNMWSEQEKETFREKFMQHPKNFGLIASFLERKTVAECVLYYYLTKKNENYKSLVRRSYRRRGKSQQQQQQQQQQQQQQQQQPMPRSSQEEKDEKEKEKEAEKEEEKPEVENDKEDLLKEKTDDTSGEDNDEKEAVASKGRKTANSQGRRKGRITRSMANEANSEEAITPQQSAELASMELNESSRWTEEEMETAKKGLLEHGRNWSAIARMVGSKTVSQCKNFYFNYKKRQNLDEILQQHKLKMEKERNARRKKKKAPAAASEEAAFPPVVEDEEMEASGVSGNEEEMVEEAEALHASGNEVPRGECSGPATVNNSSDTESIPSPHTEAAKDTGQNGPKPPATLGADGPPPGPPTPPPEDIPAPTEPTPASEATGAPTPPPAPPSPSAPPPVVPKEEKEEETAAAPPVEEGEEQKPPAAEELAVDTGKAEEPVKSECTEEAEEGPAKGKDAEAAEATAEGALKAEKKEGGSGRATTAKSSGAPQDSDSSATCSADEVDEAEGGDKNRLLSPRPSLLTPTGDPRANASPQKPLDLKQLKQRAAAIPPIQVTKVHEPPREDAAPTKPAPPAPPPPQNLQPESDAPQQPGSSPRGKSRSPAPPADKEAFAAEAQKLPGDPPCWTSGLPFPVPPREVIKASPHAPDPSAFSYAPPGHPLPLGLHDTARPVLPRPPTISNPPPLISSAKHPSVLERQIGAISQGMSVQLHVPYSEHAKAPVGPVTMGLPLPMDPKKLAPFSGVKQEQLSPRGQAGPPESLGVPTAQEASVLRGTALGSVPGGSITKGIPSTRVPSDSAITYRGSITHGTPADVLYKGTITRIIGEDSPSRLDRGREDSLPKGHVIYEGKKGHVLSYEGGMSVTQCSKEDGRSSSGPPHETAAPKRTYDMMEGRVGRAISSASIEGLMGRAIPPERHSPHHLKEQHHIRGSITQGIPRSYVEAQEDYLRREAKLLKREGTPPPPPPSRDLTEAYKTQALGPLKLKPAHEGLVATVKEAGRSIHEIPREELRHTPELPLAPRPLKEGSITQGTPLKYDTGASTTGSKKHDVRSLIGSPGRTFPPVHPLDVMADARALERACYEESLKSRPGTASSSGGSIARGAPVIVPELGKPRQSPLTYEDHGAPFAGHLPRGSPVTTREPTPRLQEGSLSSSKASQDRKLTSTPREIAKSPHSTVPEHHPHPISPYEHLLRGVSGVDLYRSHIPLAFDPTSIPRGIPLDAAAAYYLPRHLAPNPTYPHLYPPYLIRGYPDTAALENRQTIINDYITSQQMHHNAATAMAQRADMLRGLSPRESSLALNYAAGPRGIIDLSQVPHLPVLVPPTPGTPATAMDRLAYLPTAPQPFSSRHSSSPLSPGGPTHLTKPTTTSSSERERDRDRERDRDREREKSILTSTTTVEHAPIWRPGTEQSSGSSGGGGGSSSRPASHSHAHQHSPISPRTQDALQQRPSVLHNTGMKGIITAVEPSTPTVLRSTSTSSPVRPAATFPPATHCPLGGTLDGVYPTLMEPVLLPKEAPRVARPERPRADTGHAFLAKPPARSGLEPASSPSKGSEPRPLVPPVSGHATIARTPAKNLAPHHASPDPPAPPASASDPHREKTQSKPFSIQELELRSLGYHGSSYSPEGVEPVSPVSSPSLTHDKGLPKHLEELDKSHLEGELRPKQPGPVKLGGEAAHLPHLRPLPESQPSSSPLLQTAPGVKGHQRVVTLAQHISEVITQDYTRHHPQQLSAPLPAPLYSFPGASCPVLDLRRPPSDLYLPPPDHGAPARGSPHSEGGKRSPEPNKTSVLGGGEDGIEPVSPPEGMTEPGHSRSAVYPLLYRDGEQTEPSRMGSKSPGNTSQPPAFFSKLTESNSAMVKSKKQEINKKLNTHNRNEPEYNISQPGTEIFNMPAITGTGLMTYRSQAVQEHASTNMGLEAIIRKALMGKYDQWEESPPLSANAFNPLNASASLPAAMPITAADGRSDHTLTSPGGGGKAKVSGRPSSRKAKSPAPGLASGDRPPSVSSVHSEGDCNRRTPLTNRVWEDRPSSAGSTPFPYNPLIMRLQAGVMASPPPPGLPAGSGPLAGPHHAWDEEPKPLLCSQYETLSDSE
# [9] = system: Streptococcus sp. 'group A'; experiment: Streptococcus pyogenes SK(-)GAS viability under kanamycin – luminescence, BacTiterGlo, confirmation, counter-screen for streptokinase expression inhibitor project, dose response (AID 1900); assay type: functional, organism-based
# [10] = molecular target: Mitogen-activated protein kinase 10 (Homo sapiens, UniProt P53779); experiment: Dose response biochemical screening assay for inhibitors of c-Jun N-Terminal Kinase 3 (JNK3). [Related pubchem assays: 746 ]
# Sequence of Mitogen-activated protein kinase 10 (P53779 whole entry): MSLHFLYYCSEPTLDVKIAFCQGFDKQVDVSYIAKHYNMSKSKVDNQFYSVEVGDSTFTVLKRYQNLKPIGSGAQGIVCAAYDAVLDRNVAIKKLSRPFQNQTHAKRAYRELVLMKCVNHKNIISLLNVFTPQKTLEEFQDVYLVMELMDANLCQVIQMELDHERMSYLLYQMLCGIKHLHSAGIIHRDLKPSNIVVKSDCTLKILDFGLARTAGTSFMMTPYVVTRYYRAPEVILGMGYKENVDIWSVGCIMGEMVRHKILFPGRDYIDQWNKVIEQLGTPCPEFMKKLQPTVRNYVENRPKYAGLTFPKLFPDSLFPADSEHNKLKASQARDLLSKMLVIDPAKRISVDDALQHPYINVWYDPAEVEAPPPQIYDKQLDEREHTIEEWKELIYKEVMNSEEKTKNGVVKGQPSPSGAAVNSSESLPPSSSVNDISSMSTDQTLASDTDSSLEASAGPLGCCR
# Major prion protein = Major prion protein (Homo sapiens, UniProt P04156); assay type: functional, cell-based
# [11] = molecular target: T4, Small ubiquitin-related modifier 1 (Homo sapiens, UniProt P63165); experiment: SUMO1 protein interaction blockers, potency – biochemical, fluorescence polarization, uHTS hits, dose response (AID 624382); assay type: functional; settings: read-out: IC50_Mean
# T4 sequence (P63165 whole entry): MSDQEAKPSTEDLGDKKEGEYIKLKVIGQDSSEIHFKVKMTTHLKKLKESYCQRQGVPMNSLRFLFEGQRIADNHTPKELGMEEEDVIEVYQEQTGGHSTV
# [12] = molecular target: T4, Small ubiquitin-related modifier 1; experiment: SUMO1 protein-protein binding blockers, potency – biochemical, FRET, dose response (AID 624383); assay type: functional; settings: read-out: IC50_Mean
# [13] = HIV-1 Vif–A3G interaction blockers – biochemical, TR-FRET, GST-Vif 1-94, biotin-A3G peptide, dose response retest, primary screen (AID 1117319); assay type: functional;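 further: TR-FRET signal of purified GST-Vif binding a biotinylated A3G peptide; inhibitors lower the FRET signal by blocking Vif and A3G binding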
# Vero = experiment: viability of Vero cells under compound – cytotoxicity control for flavivirus capping enzyme inhibitors (AID 588742); assay type: functional; settings: Chlorocebus sabaeus
# [14] = molecular target: Voltage-gated inwardly rectifying potassium channel KCNH2 (Homo sapiens, UniProt Q12809); experiment: concentration-dependent hERG rescue from blockers – cell-based, thallium flux, dose response (AID 2121); assay type: ADME
# [15] = alpha-synuclein stem-loop luciferase translation blockers – H4 neuroglioma cells, luminescence, confirmation (AID 1988); assay type: functional, cell-based
# Beta-galactosidase = Beta-galactosidase (Escherichia coli, UniProt Q8VNN2); experiment: detection-enzyme interference by beta-gal modulators – biochemical, E. coli enzyme, set 3, artefact control for CCR6 antagonist project, dose response (AID 504712); assay type: functional
# [16] = microbe, parasite or virus in culture; assay type: functional; settings: Mycobacterium tuberculosis
# [17] = luciferase reporter signal suppression in cells – H4 neuroglioma cells, luminescence, dose response (AID 1990); assay type: functional, cell-based
# [18] = NIH-3T3 fibroblast cytotoxicity, dose response, cytotoxicity control, cell-based, fluorescence, Alamar Blue, secondary assay (AID 2327); assay type: functional;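 further: NIH-3T3 mouse fibroblasts cultured with fluconazole at 8 µg/mL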
# [19] = fluconazole-exposed Candida albicans growth modulators – fluorescence, retest, confirmation (AID 2467); assay type: functional, cell-based
# [20] = Luminescence Cell-Based Dose Response HTS to Identify Inhibitors of 5'UTR Stem-Loop Driven Prion Protein mRNA Translation in H4 Neuroglioblastoma Cells. [Related pubchem assays: 1827 (Project Summary), 1813 (Primary HTS)]; assay type: functional
# [21] = molecular target: 5-hydroxytryptamine receptor 1A (Homo sapiens, UniProt P08908); assay type: functional
# Sequence of 5-hydroxytryptamine receptor 1A (P08908 whole entry): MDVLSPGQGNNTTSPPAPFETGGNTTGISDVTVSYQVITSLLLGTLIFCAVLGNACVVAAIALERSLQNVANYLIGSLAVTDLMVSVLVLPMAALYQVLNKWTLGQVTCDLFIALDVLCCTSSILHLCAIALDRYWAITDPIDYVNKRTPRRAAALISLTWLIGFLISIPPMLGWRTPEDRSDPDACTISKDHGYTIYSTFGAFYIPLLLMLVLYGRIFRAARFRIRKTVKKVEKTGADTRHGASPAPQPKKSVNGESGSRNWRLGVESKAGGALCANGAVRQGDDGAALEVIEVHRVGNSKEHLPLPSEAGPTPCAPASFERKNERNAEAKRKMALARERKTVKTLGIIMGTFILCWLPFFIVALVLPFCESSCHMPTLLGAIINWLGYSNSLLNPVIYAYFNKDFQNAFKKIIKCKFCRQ
# 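Wherever AC50 is given: cells exposed to compound for roughly 70 hours or longer before luminescence read.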
smiles,measurement,setting,value
Cc1cccc2c1NC(=O)/C2=C1\Nc2ccccc2\C1=N/OCCN1CCNCC1,IC50,Danio rerio,6.32 µM (active)
COc1ccc(CN2C(=O)c3cccnc3C2Nc2cc(Cl)ccc2OC)cc1 (centres undefined),AC50,[1],> 195 µM (inactive)
same,IC50,[2],16.1 µM (inactive)
same,IC50,[3],14.4 µM (active)
Cc1ccnc(NC(=S)N2CCN(c3cccc(C(F)(F)F)c3)CC2)c1,IC50,[4],> 50 µM (inactive)
same,EC50,Streptokinase A,> 150 µM (not active)
same,IC50,[5],1.76 µM (active)
same,IC50,[6],11.6 µM (active)
same,EC50,Streptococcus,22.4 µM (active)
same,IC50,[7],> 39.9 µM (not active)
same,IC50,[8],> 39.9 µM (not active)
same,EC50,[9],1.66 µM (active)
Cc1nn(C(C)C(=O)O)c(=O)c2c1sc1ccccc12 (centres undefined),IC50,cells,> 138 µM (inactive)
same,IC50,[10],> 93.1 µM (not active)
same,IC50,Major prion protein,8.45 µM (active)
CCCN1Cc2cccc(C(=O)NCc3ccccc3)c2C1=O,IC50,[10],57.8 µM (not active)
Cc1nc2ccc3nc(NC(=O)c4ccco4)sc3c2s1,IC50,[11],> 66.6 µM (inactive)
same,IC50,[12],12.1 µM (active)
same,IC50,[7],4.28 µM (active)
same,IC50,[8],4.28 µM (active)
CCC1S/C(=C(\C#N)C(=O)NCc2ccco2)N(c2ccc(F)cc2)C1=O (centres undefined),IC50,[13],> 100 µM (active)
CCc1ccc(/C=C/C(=O)c2cc(Br)ccc(=O)c2O)cc1,CC50,Vero,13.5 µM (active)
same,EC50,[14],1.15 µM (active)
same,EC50,[15],15.5 µM (active)
same,IC50,Beta-galactosidase,> 66.6 µM (inactive)
same,CC50,[16],11.5 µM (active)
same,EC50,[17],> 120 µM (not active)
same,EC50,[18],15.5 µM (inconclusive)
same,EC50,[19],1.52 µM (active)
same,EC50,Streptococcus,2.6 µM (active)
same,EC50,[9],1.8 µM (active)
same,EC50,[20],15 µM (active)
Cc1noc(C)c1COc1ccc(C(=O)OC(C)C(=O)Nc2ccc(N3CCOCC3)cc2)cc1 (centres undefined),EC50,[21],> 50 µM (not active)
Cc1ccc2c(c1)/C(=C1/Nc3ccc(Br)cc3/C1=N\O)C(=O)N2,IC50,Danio rerio,2.5 µM (active)
